Assays:
Assay in all cases: combination Emax (second highest fraction inhibited in the dose matrix, 72 h); higher = more inhibition; extreme values may be limits of the assay
[1] = test system: Raji (Burkitt's Lymphoma)
Summary of the method: (§1)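 Cell lines in DMEM/F12 or RPMI with 10% FBS were plated in 1536-well plates, held 24 hours at 37°C, 5% CO2, then given two-drug dose matrices for 72 hours (DMSO typically 0.2%). Viability was read by CellTiter-Glo 2.0 luminescence and scaled as inhibition from 0 (vehicle wells) to 1 (blank wells). Combination Emax is the second-highest inhibition in the matrix; Bliss excess is observed combination effect minus expected EA + EB − EA·EB, EA and EB being single-agent effects.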

SK-N-SH (Neuroblastoma) = test system: SK-N-SH (Neuroblastoma)
Summary of the method: as §1

[2] = test system: HT-1080 (Other Solid Carcinomas)
Summary of the method: as §1

[3] = test system: MOLP-8 (Plasma Cell Myeloma)
Summary of the method: as §1

[4] = test system: NMC-G1 (Low Grade Glioma)
Summary of the method: as §1

[5] = test system: PA-TU-8988T (Pancreatic Carcinoma)
Summary of the method: as §1

[6] = test system: TUR (Acute Myeloid Leukemia)
Summary of the method: as §1

[7] = test system: ZR-75-30 (Breast Carcinoma)
Summary of the method: as §1

NCI-H226 (Mesothelioma) = test system: NCI-H226 (Mesothelioma)
Summary of the method: as §1

[8] = test system: P32-ISH (Burkitt's Lymphoma)
Summary of the method: as §1

[9] = test system: NCI-H1963 (Small Cell Lung Carcinoma)
Summary of the method: as §1

[10] = test system: NCI-H3118 (Head and Neck Carcinoma)
Summary of the method: as §1

[11] = test system: SNU-C2B (Colorectal Carcinoma)
Summary of the method: as §1

[12] = test system: MS-1 (Small Cell Lung Carcinoma)
Summary of the method: as §1

[13] = test system: MONO-MAC-6 (Acute Myeloid Leukemia)
Summary of the method: as §1

[14] = test system: MDA-MB-415 (Breast Carcinoma)
Summary of the method: as §1

[15] = test system: BxPC-3 (Pancreatic Carcinoma)
Summary of the method: as §1

KALS-1 (Glioblastoma) = test system: KALS-1 (Glioblastoma)
Summary of the method: as §1

[16] = test system: SNU-407 (Colorectal Carcinoma)
Summary of the method: as §1

[17] = test system: OAW-28 (Ovarian Carcinoma)
Summary of the method: as §1

Structure (SMILES) | combination Emax [1] | combination Emax (SK-N-SH (Neuroblastoma)) | combination Emax [2] | combination Emax [3] | combination Emax [4] | combination Emax [5] | combination Emax [6] | combination Emax [7] | combination Emax (NCI-H226 (Mesothelioma)) | combination Emax [8] | combination Emax [9] | combination Emax [10] | combination Emax [11] | combination Emax [12] | combination Emax [13] | combination Emax [14] | combination Emax [15] | combination Emax (KALS-1 (Glioblastoma)) | combination Emax [16] | combination Emax [17]
CN(C)CCCOc1ccc(-c2ccc3ncc4c(c3c2)n(C2CCOCC2)c(=O)n4C)cn1 [AZD0156] + C=CCn1c(=O)c2cnc(Nc3ccc(N4CCN(C)CC4)cc3)nc2n1-c1cccc(C(C)(C)O)n1 [AZD1775] (first compound max 1 µM, partner max 1 µM) | 0.695 | 0.799 | 0.331 | 0.721 | 0.264 | 0.718 | 0.772 | 0.156 | 0.196 | 0.995 | 0.87 | 0.842 | 0.55 | 0.877 | 0.886 | 0.177 | 0.457 | 0.855 | 0.358 | 0.27
CN(C)CCCOc1ccc(-c2ccc3ncc4c(c3c2)n(C2CCOCC2)c(=O)n4C)cn1 [AZD0156] + CCN(CCO)CCCOc1ccc2c(Nc3cc(CC(=O)Nc4cccc(F)c4)[nH]n3)ncnc2c1 [AZD2811] (first compound max 1 µM, 7x7, partner max 1 µM) | 0.165 | 0.479 | 0.142 | 0.603 | 0.126 | 0.219 | 0.218 | 0.135 | 0.0682 | 0.962 | 0.857 | 0.0407 | 0.113 | 0.224 | 0.743 | 0.206 | 0.101 | 0.214 | 0.287 | 0.175
CN(C)CCCOc1ccc(-c2ccc3ncc4c(c3c2)n(C2CCOCC2)c(=O)n4C)cn1 [AZD0156] + C[C@@H]1COCCN1C2=NC(=NC(=C2)C3(CC3)[S@](=N)(=O)C)C4=C5C=CNC5=NC=C4 [AZD6738] (first compound max 1 µM, 7x7, partner max 10 µM) | 0.87 | 0.87 | 0.507 | 0.848 | 0.269 | 0.476 | 0.923 | 0.189 | 0.0975 | 0.951 | 0.804 | 0.672 | 0.681 | 0.873 | 0.858 | 0.395 | 0.475 | 0.868 | 0.742 | 0.39
C=CCn1c(=O)c2cnc(Nc3ccc(N4CCN(C)CC4)cc3)nc2n1-c1cccc(C(C)(C)O)n1 [AZD1775] + C[C@@H]1COCCN1C2=NC(=NC(=C2)C3(CC3)[S@](=N)(=O)C)C4=C5C=CNC5=NC=C4 [AZD6738] (first compound max 1 µM, partner max 10 µM) | 0.937 | 0.953 | 0.476 | 0.854 | 0.451 | 0.833 | 0.938 | 0.296 | 0.466 | 1 | 1 | 0.855 | 0.726 | 0.983 | 1 | 0.595 | 0.624 | 0.923 | 0.758 | 0.522
C=CCn1c(=O)c2cnc(Nc3ccc(N4CCN(C)CC4)cc3)nc2n1-c1cccc(C(C)(C)O)n1 [AZD1775] + O=C(c1cc(Cc2n[nH]c(=O)c3ccccc23)ccc1F)N1CCN(C(=O)C2CC2)CC1 [Olaparib] (first compound max 1 µM, partner max 10 µM) | 0.74 | 0.882 | 0.354 | 0.754 | 0.431 | 0.8 | 0.663 | 0.213 | 0.342 | 0.997 | 0.845 | 0.889 | 0.601 | 0.924 | 0.942 | 0.229 | 0.511 | 0.896 | 0.465 | 0.251
CCN(CCO)CCCOc1ccc2c(Nc3cc(CC(=O)Nc4cccc(F)c4)[nH]n3)ncnc2c1 [AZD2811] + C=CCn1c(=O)c2cnc(Nc3ccc(N4CCN(C)CC4)cc3)nc2n1-c1cccc(C(C)(C)O)n1 [AZD1775] (first compound max 1 µM, partner max 1 µM) | 0.667 | 0.787 | 0.331 | 0.76 | 0.254 | 0.678 | 0.668 | 0.155 | 0.185 | 1 | 0.876 | 0.807 | 0.554 | 0.848 | 0.958 | 0.131 | 0.449 | 0.841 | 0.416 | 0.213
CCN(CCO)CCCOc1ccc2c(Nc3cc(CC(=O)Nc4cccc(F)c4)[nH]n3)ncnc2c1 [AZD2811] + C[C@@H]1COCCN1C2=NC(=NC(=C2)C3(CC3)[S@](=N)(=O)C)C4=C5C=CNC5=NC=C4 [AZD6738] (first compound max 1 µM, 7x7, partner max 10 µM) | 0.691 | 0.906 | 0.336 | 0.791 | 0.372 | 0.35 | 0.861 | 0.18 | 0.233 | 0.992 | 0.887 | 0.599 | 0.655 | 0.72 | 0.908 | 0.498 | 0.447 | 0.828 | 0.658 | 0.396
CCN(CCO)CCCOc1ccc2c(Nc3cc(CC(=O)Nc4cccc(F)c4)[nH]n3)ncnc2c1 [AZD2811] + O=C(c1cc(Cc2n[nH]c(=O)c3ccccc23)ccc1F)N1CCN(C(=O)C2CC2)CC1 [Olaparib] (first compound max 1 µM, 7x7, partner max 10 µM) | 0.341 | 0.479 | 0.215 | 0.434 | 0.318 | 0.208 | 0.285 | 0.185 | 0.236 | 0.946 | 0.856 | 0.208 | 0.269 | 0.454 | 0.783 | 0.225 | 0.244 | 0.296 | 0.306 | 0.213
CN(CCO)CC[C@H](CSc1ccccc1)Nc1ccc(S(=O)(=O)NC(=O)c2ccc(N3CCC([C@@H](O)c4ccccc4-c4ccc(Cl)cc4)CC3)cc2)cc1S(=O)(=O)C(F)(F)F [AZD4320] + C1CN(CCC1(C(=O)N[C@@H](CCO)C2=CC=C(C=C2)Cl)N)C3=NC=NC4=C3C=CN4 [Capivasertib] (first compound max 1 µM, 7x7, partner max 3 µM) | 0.177 | 0.707 | 0.5 | 0.254 | 0.507 | 0.22 | 0.559 | 0.307 | 0.227 | 0.318 | 1 | 0.0845 | 0.201 | 0.52 | 0.597 | 0.968 | 0.0788 | 0.485 | 0.362 | 0.899
CCc1c2c(nc3ccc(O)cc13)-c1cc3c(c(=O)n1C2)COC(=O)[C@]3(O)CC [SN-38] + O=C(c1cc(Cc2n[nH]c(=O)c3ccccc23)ccc1F)N1CCN(C(=O)C2CC2)CC1 [Olaparib] (first compound max 0.3 µM, 7x7, partner max 10 µM) | 0.956 | 0.959 | 0.489 | 0.783 | 0.246 | 0.604 | 0.994 | 0.348 | 0.168 | 1 | 0.854 | 0.396 | 0.478 | 0.724 | 1 | 0.321 | 0.59 | 0.616 |  | 
Cn1cnc2c(F)c(Nc3ccc(Br)cc3Cl)c(C(=O)NOCCO)cc21 [Selumetinib] + CC(C)n1c(=O)n(C)c2cnc3cc(F)c(-c4ccc(OCCCN5CCCCC5)nc4)cc3c21 [AZD1390] (first compound max 10 µM, 7x7, partner max 0.3 µM) | 0.233 | 0.146 | 0.261 | 0.325 |  | 0.321 | 0.272 | 0.0506 | 0.133 | 0.101 | 0.303 | 0.577 | 0.29 | 0.117 | 0.231 | 0.222 | 0.4 | 0.405 | 0.507 | 0.332
Cn1cnc2c(F)c(Nc3ccc(Br)cc3Cl)c(C(=O)NOCCO)cc21 [Selumetinib] + CCN(CCO)CCCOc1ccc2c(Nc3cc(CC(=O)Nc4cccc(F)c4)[nH]n3)ncnc2c1 [AZD2811] (first compound max 10 µM, 7x7, partner max 1 µM) | 0.0936 | 0.289 | 0.387 | 0.417 |  | 0.321 | 0.349 | 0.111 | 0.216 | 0.867 | 0.902 | 0.537 | 0.335 | 0.179 | 0.703 | 0.248 | 0.407 | 0.417 | 0.726 | 0.408
Cn1cnc2c(F)c(Nc3ccc(Br)cc3Cl)c(C(=O)NOCCO)cc21 [Selumetinib] + C[C@@H]1COCCN1C2=NC(=NC(=C2)C3(CC3)[S@](=N)(=O)C)C4=C5C=CNC5=NC=C4 [AZD6738] (first compound max 10 µM, 7x7, partner max 10 µM) | 0.722 | 0.769 | 0.461 | 0.832 |  | 0.466 | 0.934 | 0.111 | 0.152 | 0.918 | 0.855 | 0.653 | 0.468 | 0.667 | 0.931 | 0.458 | 0.494 | 0.681 | 0.758 | 0.598

Source: the supplement of paper PMC11061612
